According to patent publication US20080306070A1, “Combination Therapy Comprising Substituted Oxazolidinones for the Prevention and Treatment of Cerebral Circulatory Disorders” (BAYER HEALTHCARE AG, priority 2005, published 2008):

Tests used:
[1] = tested on: thrombus formation in an arteriovenous shunt; assay: Arteriovenous shunt model (rat), antithrombotic effect; type: in vivo; settings: oral administration, read-out: ED50 [mg/kg] p.o.
Method: Fasting male rats (strain: HSD CPB:WU) weighing 200-250 g were anesthetized with a Rompun/Ketavet solution (12 mg/kg/50 mg/kg). Thrombus formation was induced in an arteriovenous shunt by a method based on that described by Christopher N. Berry et al., Br. J. Pharmacol. (1994), 113, 1209-1214. For this purpose, the left jugular vein and the right carotid artery were exposed. An extracorporeal shunt was formed between the two vessels using a 10 cm-long polyethylene tube (PE 60). This polyethylene tube was secured in the middle by tying in a further 3 cm-long polyethylene tube (PE 160) which contained a roughened nylon thread forming a loop to produce a thrombogenic surface. The extracorporeal circulation was maintained for 15 minutes. The shunt was then removed and the nylon thread with the thrombus was immediately weighed. The blank weight of the nylon thread had been found before the start of the experiment. The test substances were administered either intravenously through the tail vein or orally by gavage to conscious animals before setting up the extracorporeal circulation.

| melting point [°C] | SMILES | ED50 [1] [mg/kg] |
| --- | --- | --- |
|  | O=C(NC[C@H]1CN(c2ccc(N3CCOCC3=O)cc2)C(=O)O1)c1ccc(Cl)s1 [Example 44, 5-Chloro-N-({(5S)-2-oxo-3-[4-(3-oxo-4-morpholinyl)phenyl]-1,3-oxazolidin-5-yl}methyl)-2-thiophenecarboxamide] | 3 |
| 228 to 230 | O=C(NC[C@H]1CN(c2ccc(N3CCCOC3=O)cc2)C(=O)O1)c1ccc(Cl)s1 [Example 255] |  |
